{"source": "patent US20250084078A1", "about": "“FUSED RING-SUBSTITUTED SIX-MEMBERED HETEROCYCLIC COMPOUND, AND PREPARATION METHOD THEREFOR AND USE THEREOF” (GENFLEFT THERAPEUTICS (SHANGHAI) INC., priority 2022, published 2025)"}
{"biological_target": "HPK1 (Homo sapiens, UniProt Q92918)", "sequence (Q92918 whole entry)": "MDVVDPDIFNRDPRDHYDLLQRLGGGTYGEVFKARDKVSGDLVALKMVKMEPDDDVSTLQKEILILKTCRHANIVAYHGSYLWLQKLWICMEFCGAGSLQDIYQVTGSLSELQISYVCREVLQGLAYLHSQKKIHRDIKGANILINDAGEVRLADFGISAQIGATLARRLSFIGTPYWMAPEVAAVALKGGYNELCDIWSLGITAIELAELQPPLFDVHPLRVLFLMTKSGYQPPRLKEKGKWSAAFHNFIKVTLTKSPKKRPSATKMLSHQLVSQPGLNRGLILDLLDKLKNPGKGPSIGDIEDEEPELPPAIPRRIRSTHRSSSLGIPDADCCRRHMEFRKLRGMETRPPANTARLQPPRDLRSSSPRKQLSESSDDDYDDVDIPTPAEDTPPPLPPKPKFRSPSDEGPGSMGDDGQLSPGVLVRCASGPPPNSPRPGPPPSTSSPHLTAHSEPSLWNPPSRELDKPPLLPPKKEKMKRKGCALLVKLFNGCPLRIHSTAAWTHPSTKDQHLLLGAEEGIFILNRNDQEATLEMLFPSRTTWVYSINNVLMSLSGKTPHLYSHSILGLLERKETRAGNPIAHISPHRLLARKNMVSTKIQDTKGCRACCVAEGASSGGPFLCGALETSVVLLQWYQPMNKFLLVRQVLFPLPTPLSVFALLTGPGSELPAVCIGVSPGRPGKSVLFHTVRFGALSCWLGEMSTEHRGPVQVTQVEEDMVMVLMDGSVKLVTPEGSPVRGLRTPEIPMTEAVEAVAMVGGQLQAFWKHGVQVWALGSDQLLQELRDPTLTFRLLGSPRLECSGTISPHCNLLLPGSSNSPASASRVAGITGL", "assay": "SLP76 phosphorylation assay (intracellular HPK1 inhibitory activity, p-SLP76 S376 ELISA in Jurkat cells)", "settings": "p-SLP76 IC50, Jurkat, Clone E6-1 cells; 1 h compound pre-incubation; anti-CD3 beads stimulation 20 min; Phospho-SLP-76 (Ser376) ELISA", "units": {"IC50": "nM"}, "method": "SLP76 Phosphorylation Assay\nIntracellular HPK1 inhibitory activity was tested by the detection of SLP76 phosphorylation at S376.\nPreparation of 1000× drug stock plate: a 1000× compound stock plate was prepared. […] The compound stock plate was sealed with a sealing film and stored in a −20° C. refrigerator for later use.\nPreparation of Beads wash buffer: 0.1 mL FBS and 0.4 mL 0.5 M EDTA (with a final concentration of 2 mM) were added to 100 mL PBS and stored in a 4° C. refrigerator for later use.\n100× Protease Inhibitor Cocktail in 1/20 total volume was added and stored on wet ice for later use. The buffer was ready to use.\nCell inoculation and dosing: the 1000× drug stock plate was taken and melted at room temperature in the dark. […] Jurkat cells in the logarithmic growth phase were selected and collected. […] The cells were inoculated into a 96-well plate (the volume was 90 μL per well), and a blank control well (without cells inoculation, and in which 110 μL of medium was added) was set. 10 μL of a drug-containing culture medium (10×) was transferred from the 10× drug intermediate plate into the 96-well cell plate (with a final concentration of 0.1% DMSO), and set a DMSO control group (in which 0.1% DMSO was added to the treated cells), a stimulated control group (in which 10 μL of culture medium was added to treat cells) and an unstimulated group (in which 10 μL of culture medium was added to treat cells). The wells were duplicated, gently patted, mixed, and then placed into a 5% CO2 incubator at 37° C. for 1 h.\nAnti-CD3 beads stimulation: Dynabeads anti-human CD3 was taken, shaken, and mixed for 60 s. The required volume of beads was pipetted, and an equal volume or at least 1 mL of washing solution was added to wash once. Fresh complete medium was then added to resuspend and adjust the density of the beads to 4×10^7/mL, and the beads were placed on ice for later use. At the end of drug pre-incubation, the cell culture plate was taken out. 10 μL Dynabeads anti-human CD3 was added to each well to treat the cells, and 10 μL the culture medium was added to the unstimulated group. The cell culture plate was shaken to mix well at 2500 rpm for 10 s, and then placed into a 5% CO2 incubator at 37° C. and continued to culture for 20 min.\nDetection of p-SLP76 protein level: PathScan Phospho-SLP-76 (Ser376) Sandwich ELISA Kit was applied to detect p-SLP76 protein level. At the end of the Anti-CD3 beads stimulation, the cell culture plate was removed from the incubator. […] After lysis, the cell culture plate was centrifuged at 4° C., 400×g for 5 min. 25 μL of sample and 75 μL of sample diluent were added to each well, and the plate was placed in a 5% CO2 incubator at 37° C. for 2 h. The subsequent detection steps were carried out following the kit instructions, and the absorbance (OD value) of each well was read at 450 nm by a microplate reader."}
{"smiles": "Cc1c[nH]c2ncc(-c3cc4c(c([C@@H]5COCCN5)c3)CN(C(=O)N3CC[C@@H](F)C3)CC4)cc12", "note": "[Compound Z486, ((R)-3-fluoropyrrolidin-1-yl)(6-(3-methyl-1H-pyrrolo[2,3-b]pyridin-5-yl)-8-((R)-morpholin-3-yl)-3,4-dihydroisoquinolin-2(1H)-yl)methanone]", "IC50": 153}
{"smiles": "O=C(C1CCOCC1)N1CCc2c(cc(-c3cnc4[nH]cc(Cl)c4c3)cc2[C@@H]2COCCN2)C1", "note": "[Compound Z487, (R)-(7-(3-chloro-1H-pyrrolo[2,3-b]pyridin-5-yl)-5-(morpholin-3-yl)-3,4-dihydroisoquinolin-2(1H)-yl)(tetrahydro-2H-pyran-4-yl)methanone]", "IC50": 153}
{"smiles": "Cc1c[nH]c2ncc(-c3cc4c(c([C@@H]5COCCN5)c3)CN(C3CCN(C)CC3)CC4)cc12", "note": "[Compound Z498, (R)-3-(6-(3-methyl-1H-pyrrolo[2,3-b]pyridin-5-yl)-2-(1-methylpiperidin-4-yl)-1,2,3,4-tetrahydroisoquinolin-8-yl)morpholine]", "IC50": 195}
{"smiles": "O=S(=O)(C1CC1)N1CCc2cc(-c3cnc4[nH]cc(Cl)c4c3)cc([C@@H]3COCCN3)c2C1", "note": "[Compound Z499, (R)-3-(6-(3-chloro-1H-pyrrolo[2,3-b]pyridin-5-yl)-2-(cyclopropylsulfonyl)-1,2,3,4-tetrahydroisoquinolin-8-yl)morpholine]", "IC50": 219}
{"smiles": "C[C@@H]1COCCN1C(=O)N1CCc2cc(-c3cnc4[nH]cc(Cl)c4c3)cc([C@@H]3COCCN3)c2C1", "note": "[Compound Z500, (6-(3-chloro-1H-pyrrolo[2,3-b]pyridin-5-yl)-8-((R)-morpholin-3-yl)-3,4-dihydroisoquinolin-2(1H)-yl)((R)-3-methylmorpholine)methanone]", "IC50": 143}
{"smiles": "CS(=O)(=O)N1CCc2cc(-c3cnc4[nH]cc(Cl)c4c3)cc([C@@H]3COCCN3)c2C1", "note": "[Compound Z501, (R)-3-(6-(3-chloro-1H-pyrrolo[2,3-b]pyridin-5-yl)-2-(methylsulfonyl)-1,2,3,4-tetrahydroisoquinolin-8-yl)morpholine]", "IC50": 285}
{"smiles": "C[C@@H]1CN(C(=O)N2CCc3cc(-c4cnc5[nH]cc(Cl)c5c4)cc([C@@H]4COCCN4)c3C2)CCO1", "note": "[Compound Z502, (6-(3-chloro-1H-pyrrolo[2,3-b]pyridin-5-yl)-8-((R)-morpholin-3-yl)-3,4-dihydroisoquinolin-2(1H)-yl)((R)-2-methylmorpholino)methanone]", "IC50": 169}
{"smiles": "CC1(C)COCCN1C(=O)N1CCc2cc(-c3cnc4[nH]cc(Cl)c4c3)cc([C@@H]3COCCN3)c2C1", "note": "[Compound Z503, (R)-(6-(3-chloro-1H-pyrrolo[2,3-b]pyridin-5-yl)-8-(morpholin-3-yl)-3,4-dihydroisoquinolin-2(1H)-yl)(3,3-dimethylmorpholino)methanone]", "IC50": 168}
{"smiles": "Cc1c[nH]c2ncc(-c3cc4c(c([C@@H]5COCCN5)c3)CN(C(=O)C3CC5CCC(C3)O5)CC4)cc12", "note": "(stereo partly drawn) [Compound Z504, (8-oxabicyclo[3.2.1]octan-3-yl)(6-(3-methyl-1H-pyrrolo[2,3-b]pyridin-5-yl)-8[(R)-morpholin-3-yl)-3,4-dihydroisoquinolin-2(1H)-yl)-methanone]", "IC50": 232}
{"smiles": "Cc1c[nH]c2ncc(-c3cc4c(c([C@@H]5COCCN5)c3)CN(C(=O)C3(C)COC3)CC4)cc12", "note": "[Compound Z505, (R)-(6-(3-methyl-1H-pyrrolo[2,3-b]pyridin-5-yl)-8-(morpholin-3-yl)-3,4-dihydroisoquinolin-2(1H)-yl)(3-methyloxetan-3-yl)methanone]", "IC50": 263}
{"smiles": "CC(C)(O)C(=O)N1CCc2cc(-c3cnc4[nH]cc(C#N)c4c3)cc([C@@H]3COCCN3)c2C1", "note": "[Compound Z506, (R)-5-(2-(2-hydroxy-2-methylpropanoyl)-8-(morpholin-3-yl)-1,2,3,4-tetrahydroisoquinolin-6-yl)-1H-pyrrolo[2,3-b]pyridine-3-carbonitrile]", "IC50": 685}
